± gives the expanded uncertainty stated by the source.
details: 298.15 K; 101.33 kPa; Liquid

Compound	mass density
CCCCCCCCCCCCCCCC [hexadecane]	771.5 ± 1.4 kg/m3
CCCCCCn1cc[n+](C)c1.F[B-](F)(F)F [1-hexyl-3-methylimidazolium tetrafluoroborate]	1148.1 ± 5 kg/m3
CCCCCCn1cc[n+](C)c1.F[P-](F)(F)(F)(F)F [1-hexyl-3-methylimidazolium hexafluorophosphate]	1293.5 ± 7 kg/m3

The remaining lines, values ahead:

mass density	Compound
690.6 ± 1.6 kg/m3	CCCCCCC [heptane]
873.2 ± 0.9 kg/m3	c1ccccc1 [benzene]
747 ± 4 kg/m3	CCCCCCCCCCCC [dodecane]
